This is an account of results in patent US20140315786A1, “USE OF INTRACELLULAR ENZYMES FOR THE RELEASE OF COVALENTLY LINKED BIOACTIVES” (Catabasis Pharmaceuticals, Inc., priority 2011, published 2014).

One data set concerns NFκB. The experiment in a line: NFκB-driven luciferase reporter assay in LPS-challenged RAW 264.7 macrophages. The class given is cell-based. The conditions noted are these: Mus musculus, RAW264.7; RAW 264.7, LPS 200 ng/mL; linked bioactive; read-out: IC50 in an NFkB assay. The procedure: RAW 264.7 cells transfected with an NFκB-driven luciferase reporter were plated in 96 well plates. Cells were treated with Vehicle (0.1% ethanol) or test compounds for 2 hours. As a positive control for inhibition of NFκB signaling, 6 wells were treated with […]. Cells were then challenged with 200 ng/mL LPS for 3 hours in the presence of test compounds. A subset of wells treated with vehicle remained unstimulated with LPS to determine the floor signal of the assay. NFκB driven luciferase activity was developed by addition of BriteLite luciferase kit (PERKIN ELMER®) and measured using a Victor V plate reader. NFκB activity (luciferase activity) for each treatment was normalized to Vehicle wells treated with LPS (% NFκB Response).
Background: In a reporter assay the amount or activity of a reporter protein is the signal.

For a further data set, the target named is T1, FAAH-1 (Homo sapiens, UniProt O00519).
T1 construct: expressed in transfected cells; host or cells: COS-7
T1 sequence (O00519 1-579): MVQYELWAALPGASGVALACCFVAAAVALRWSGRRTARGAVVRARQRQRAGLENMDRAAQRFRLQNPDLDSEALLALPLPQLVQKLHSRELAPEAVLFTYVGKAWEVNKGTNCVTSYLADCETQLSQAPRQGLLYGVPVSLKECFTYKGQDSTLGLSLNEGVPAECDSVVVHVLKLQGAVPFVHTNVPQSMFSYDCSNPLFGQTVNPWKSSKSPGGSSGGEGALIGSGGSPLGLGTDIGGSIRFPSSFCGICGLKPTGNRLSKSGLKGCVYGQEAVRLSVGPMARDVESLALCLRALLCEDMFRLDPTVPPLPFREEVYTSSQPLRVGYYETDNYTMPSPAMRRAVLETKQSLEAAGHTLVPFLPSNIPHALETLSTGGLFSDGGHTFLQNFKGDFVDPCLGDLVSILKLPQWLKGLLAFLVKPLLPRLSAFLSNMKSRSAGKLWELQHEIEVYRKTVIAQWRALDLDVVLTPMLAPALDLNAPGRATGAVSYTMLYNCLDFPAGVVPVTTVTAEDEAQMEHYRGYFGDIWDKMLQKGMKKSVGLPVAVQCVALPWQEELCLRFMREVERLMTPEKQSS
Briefly: Hydrolysis in homogenate of COS-7 cells overexpressed with FAAH-1. Type of data set: biochemical. The settings on record: 5 μM. As to the method: Hydrolysis experiments using COS-7 cells overexpressed with either FAAH-1 or FAAH-2. […] The next day, cells were transfected, in duplicate, with 10 μg Vector control, flag-FAAH-1 or flag-FAAH-2 plasmids using Lipofectamine 2000 (Invitrogen) according to the manufacturer's protocol. 24 hours post transfection, cells were washed 1× in cold PBS, aspirated dry, and then scraped off the plate in the presence of 0.6 mL reaction buffer (50 mM HEPES, pH 9.0; 1 mM EDTA). Cells were then homogenated using a VWR VDI 12 Adaptable Homogenizer, on ice for 1 minute, and the sample was then clarified by centrifugation at 6,000 g for 5 minutes. The supernatant of this homogenated fraction was then used for FAAH hydrolysis assays. […] Gel densitometry was performed and the % FAAH extracted in each successive lysis conditions was determined according to standard procedures.
The following hydrolysis experiments were performed using COS-7 cells containing overexpressed FAAH-1 or FAAH-2. […] Briefly, the hydrolysis experiments were carried out in Eppendorf tubes using procedures similar to the one described above. […] At time=0, 1, and 3 h, the protein was precipitated with acetonitrile.

The subject of data set [1] is ApoB secretion in HepG2 cells. The experiment in a line: ApoB secretion in HepG2 cells (oleate stimulated, ELISA). The class given is cell-based. The settings on record: Homo sapiens, linked bioactive. As to the method: HcpG2 cells (ATCC) were seeded at 10,000 cells per well in 96 well plates. After adhering overnight, growth media (10% FBS in DMEM) was removed and cells were serum starved for 24 hours in DMEM containing 0.1% fatty acid free bovine serum albumin (BSA, SIGMA®). Cells were then treated with the compounds. Niacin at 5 mM was used as a positive control. All treatments were performed in triplicate. Simultaneous with compound treatment, ApoB secretion was stimulated with the addition of […] complexed to fatty acid free BSA in a 5:1 molar ratio. Incubation with compounds and oleate was conducted for 24 hours. Media supernatants were removed and ApoB concentrations were measured using ELISA kits (MABTECH AB®). Percent inhibition of ApoB secretion was determined by normalizing data to vehicle treated wells. For a given compound, an IC50 (concentration at which 50% of ApoB secretion is inhibited) can also be determined by using a 4 parameter-fit inhibition curve model (GRAPH PAD PRISM®). In each experiment, cell viability was determined using the ATPlite 1-Step kit (PERKIN ELMER®), such that compound effects due to cytotoxicity could be monitored.
(An ELISA detects its analyte on a solid surface through an enzyme-linked reagent.)

Regarding `CC/C=C\C/C=C\C/C=C\C/C=C\C/C=C\C/C=C\CCC(=O)NCCNC(=O)c1ccccc1O` [Compound I-1, N-(2-(4Z,7Z,10Z,13Z,16Z,19Z)-docosa-4,7,10,13,16,19-hexaenamidoethyl)-2-hydroxybenzamide], the IC50 in the data set on NFκB is 30 to 35 µM. Further, the “hydrolysis (disappearance of compound) in COS-7 cells overexpressed with FAAH-1” value on FAAH-1 (FIG. 9A, absence of any inhibitor, 0-3 h) was “significant hydrolysis”. Moreover, on FAAH-1 (FIG. 9C, no inhibitor), the “appearance of DHA from compound, FAAH-1” value is listed as “time dependent formation of DHA”.
For the compound `CC/C=C\C/C=C\C/C=C\C/C=C\C/C=C\CCCC(=O)NCCNC(=O)c1cccnc1` [III-1, N-(2-(5Z,8Z,11Z,14Z,17Z)-icosa-5,8,11,14,17-pentaenamidoethyl)nicotinamide], in data set [1], the IC50 came out at 50 µM.
Same read-out and setting: for `CC/C=C\C/C=C\C/C=C\C/C=C\C/C=C\C/C=C\CCC(=O)NCCNC(=O)c1cccnc1` [III-2, N-(2-(4Z,7Z,10Z,13Z,16Z,19Z)-docosa-4,7,10,13,16,19-hexaenamidoethyl)nicotinamide] the value was 50 µM.
Consider `CC/C=C\C/C=C\C/C=C\C/C=C\C/C=C\C/C=C\CCC(=O)NCCNC(=O)/C=C/C(=O)OC` [IV-1, (E)-methyl 4-(2-(4Z,7Z,10Z,13Z,16Z,19Z)-docosa-4,7,10,13,16,19-hexaenamidoethylamino)-4-oxobut-2-enoate], for which the IC50 in the data set on NFκB came out at 16 µM.
`CC/C=C\C/C=C\C/C=C\C/C=C\C/C=C\C/C=C\CCC(=O)N1CCN(C(=O)CCC/C=C\C/C=C\C/C=C\C/C=C\C/C=C\CC)CC1` [VI-1, (4Z,7Z,10Z,13Z,16Z,19Z)-1-[4-((5Z,8Z,11Z,14Z,17Z)-icosa-5,8,11,14,17-pentaenoyl)-piperazin-1-yl]-docosa-4,7,10,13,16,19-hexaen-1-one]: in data set [1], the IC50 was found to be 10 µM.
As for `CC/C=C\C/C=C\C/C=C\C/C=C\C/C=C\C/C=C\CCC(=O)NCCNC(=O)CCC/C=C\C/C=C\C/C=C\C/C=C\C/C=C\CC` [VI-5, (4Z,7Z,10Z,13Z,16Z,19Z)-docosa-4,7,10,13,16,19-hexaenoic acid [2-((5Z,8Z,11Z,14Z,17Z)-icosa-5,8,11,14,17-pentaenoylamino)-ethyl]-amide], in the data set with NFκB, the IC50 came to 63 µM.
Consider `CC/C=C\C/C=C\C/C=C\C/C=C\C/C=C\C/C=C\CCC(=O)NCCNC(=O)CC/C=C\C/C=C\C/C=C\C/C=C\C/C=C\C/C=C\CC` [VI-6, (4Z,7Z,10Z,13Z,16Z,19Z)-docosa-4,7,10,13,16,19-hexaenoic acid [2-((4Z,7Z,10Z,13Z,16Z,19Z)-docosa-4,7,10,13,16,19-hexaenoylamino)-ethyl]-amide], for which the IC50 in the data set on NFκB came to 68 µM.

The IC50 is the midpoint of a concentration-inhibition curve.
